# In patent US9394338B2, “Glutathione analogs and uses thereof” (REGENTS OF THE UNIVERSITY OF MINNESOTA, priority 2011, dated 2016):
# Experiments:
# GSH uptake transporters = experiment: Inhibition of [3H]-GSH uptake; format: cell-based, human; details: 100 nM [3H]-GSH; 1 μM, 100 nM and 10 nM compound
# Experimental: Inhibition of Glutathione Uptake by Ψ-GS. The uptake experiment was performed under conditions described previously. Briefly, the cells were seeded in 24-well plates. After an overnight incubation, the cells were treated with 100 nM concentration of [^3H]-GSH in uptake buffer (128 mM NaCl, 4.73 mM KCl, 1.25 mM CaCl2, 1.25 mM MgSO4, and 5 mM HEPES, pH =7.4) in the presence or absence of Ψ-GSH at concentrations of 10, 100 and 1000 nM at 37° C. under 5% CO2 for 30 min. At the end of incubation, the cellular uptake was terminated by washing three times with ice-cold PBS. Any remaining buffer was aspirated, and the cells were lysed with 1 ml of warm 0.1% SDS/0.1 N NaOH solution for a minimum of 45 min. Intracellular levels of radioactive GSH were determined using liquid scintillation counting. All resulting levels of GSH uptake were normalized to the total protein in each well using a BCA protein assay. All uptake experiments were performed in triplicate and statistically significant differences in uptake were evaluated using Graphpad Prism 5.1 (Graphpad, La Jolla, Calif.) using a one-way ANOVA followed by a Dunnett's post hoc test with a false discovery rate of 0.05.
# APP/PS1 mice = experiment: Brain protein carbonyl determination; format: in vivo
# Experimental: Efficacy Study Design. To determine the effect of intraperitoneal and oral Ψ-GSH treatment, the study was divided in four groups (10 mice/group). 1. APP/PS1 mice-vehicle control, 2. APP/PS1 mice-Ψ-GSH i.p. 500 mg/kg, 3. APP/PS1 mice-Ψ-GSH oral 500 mg/kg, 4. Non-transgenic wild type mice-vehicle control. All the animals in the above-said groups were treated with saline or Ψ-GSH three times a week for 12 weeks, starting at the age of three to four months. Eleven weeks after the start of the treatment, the animals were tested in the Morris water maze, and twelve weeks after the start of the treatment, the animals were sacrificed for histopathological analysis.
# Protein Carbonyl Determination. Brains were homogenized in cold buffer (50 mM phosphate, pH 7.0, containing 1 mM EDTA containing protease inhibitors) and centrifuged at 10,000×g for 15 min at 4° C. The supernantent was mixed with 0.5 ml of 10 mM 2,4-dinitrophenylhydrazine (DNPH)/2 M HCL (or 2 M HCl alone for blanks). Samples were placed in a sample holder and incubated in the dark at room temperature for one hour vortexing intermittently. […] The concentration of DNPH was determined at its maximum wavelength (360 nm) and the molar absorption coefficient of 22,000 M^−1 cm^−1 was used to quantify the levels of protein carbonyls. Total protein concentration was determined by BCA protein assay kit (Pierce, Rockford, Ill.). […]
# [1] = Non-protein thiols in plasma and brain (DTNB); format: in vivo, C57BL/6 mice
# Experimental: Detection of Non-Protein Thiols in Plasma and Brain. Wild type C57BL/6 mice at the age of six to eight weeks (4 per group) were treated with Ψ-GSH i.p and orally. Mice were euthanized by overdose of ketamine and xylazine at the desired time-points from the administration of the drug (0, 0.5, 1, 2 and 4 hours after drug administration). Brain and plasma samples were collected. Brains were perfused with ice-cold 0.9% NaCl, and cut sagittally into left and right hemispheres. The right hemisphere was fixed in Zamboni's fixative as described under Immunohistochemistry. The left hemispehere was immediately frozen in liquid nitrogen and utilized in further biochemical analysis. Brain tissue was homogenized in ice-cold buffer (50 mM phosphate, pH 7.0, containing 1 mM EDTA containing protease inhibitors) containing 5% sulfosalicylic acid. After homogenization, samples were centrifuged at 8000×g for 10 min at 4° C. The clear supernatant was transferred to a new tube and used for analysis of free thiol concentration.
# Blood was collected in heparin-coated tubes (Fisher, Pittsburgh, Pa.) and immediately centrifuged at 5000×g for 10 min at 4° C. […]
# Assay Conditions: 150 μl of Tris.HCl, pH 8.9 (Trizma base, 0.2 M; EDTA 0.02 M)+20 μl of DTNB (1 mg/mL in methanol)+50 μl of supernatant from TCA precipitation. The changes in absorbance were measured at 412 nm after […] incubation in dark at room temperature.
# Swiss Webster Mice = experiment: ACP (acetaminophen) overdose rescue and effects on normal liver; format: in vivo
# Experimental: 36-Male Swiss Webster Mice (HSD) were fasted over-night and then brought to the lab at 8:00 am the following day and weighed. Food was kept out of the cages until after the final drug injection. Mice were divided into treatment groups as below in Table 2.
# Thirty minutes post overdose with 370 mg/kg ACP, the following were evaluated for the groups in Table 2:
# N-acetylcysteine (NAC) at 7.35 mmol/kg;
# Ψ-GSH at three different doses, 3.67, 2.45 and 1.22 mmol/kg; and
# examine effects of Ψ-GSH on normal liver at rescue doses.
smiles,measurement,setting,value
"N[C@@H](CNC(=O)N[C@@H](CS)C(=O)NCC(=O)O)C(=O)O [Ψ-GSH, γ-Gla-Cys-Gly-OH]",[3H]-GSH uptake by SH-SY-5Y cells,GSH uptake transporters,inhibited in a dose-dependent manner
same,Protein carbonyls in brain (WT saline = 100%),APP/PS1 mice; i.p.,97.8±6.30%
same,levels of protein carbonylation,APP/PS1 mice; oral,unaffected
same,plasma thiol level,"[1]; oral 500 mg/Kg, over 2 hours",reducing to basal levels
same,plasma thiol level,"[1]; single i.p. 500 mg/Kg, at 4 hours",dropped to basal levels
same,liver histopathology after ACP overdose,Swiss Webster Mice; 370 mg/kg ACP + rescue agent,absence of necrotic tissue
same,ALT levels after ACP overdose,"Swiss Webster Mice; 370 mg/kg ACP, rescue 30 min later at half molar equivalent of NAC",decrease in ALT levels comparable to that caused by NAC
same,tolerability when given alone,"Swiss Webster Mice; mouse, in vivo",safe and well tolerated
